How the values were obtained:
[1] = Cytotoxicity against HEK293 cells assessed as reduction in cell growth incubated for 12 hrs by CCK-8 assay; type: toxicity, cell-based; details: human
[2] = biological target: T1, Alpha amylase (Homo sapiens, UniProt P0DUB6); assay: Inhibition of human saliva alpha-amylase using starch as substrate preincubated for 15 mins followed by substrate addition and measured after 15 mins
T1 sequence (P0DUB6 whole entry): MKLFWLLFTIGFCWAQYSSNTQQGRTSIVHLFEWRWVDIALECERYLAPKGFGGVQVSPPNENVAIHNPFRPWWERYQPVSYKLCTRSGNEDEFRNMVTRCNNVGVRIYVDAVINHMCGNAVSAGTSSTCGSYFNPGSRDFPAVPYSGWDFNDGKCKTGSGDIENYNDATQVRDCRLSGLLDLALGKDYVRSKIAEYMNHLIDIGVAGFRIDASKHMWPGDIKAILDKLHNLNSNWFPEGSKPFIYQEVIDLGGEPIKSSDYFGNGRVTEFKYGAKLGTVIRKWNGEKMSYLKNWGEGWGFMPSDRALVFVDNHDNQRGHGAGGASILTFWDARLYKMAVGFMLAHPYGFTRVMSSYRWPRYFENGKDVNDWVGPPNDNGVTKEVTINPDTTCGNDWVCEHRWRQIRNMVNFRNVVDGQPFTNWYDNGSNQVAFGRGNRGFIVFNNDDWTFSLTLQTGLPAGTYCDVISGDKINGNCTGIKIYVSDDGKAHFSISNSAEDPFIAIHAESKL

[3] = test system: O=C(N/N=C/c1coc2cc(Br)ccc2c1=O)c1nc(-c2cccc(Br)c2)cs1; assay: Competitive inhibition of human saliva alpha-amylase assessed as Km using starch as substrate preincubated for 15 mins followed by substrate addition and measured after 15 mins by Lineweaver-Burk plot analysis; details: time 30.0 min
[4] = biological target: T1, Alpha amylase; assay: Competitive inhibition of human saliva alpha-amylase assessed as inhibition constant using starch as substrate preincubated for 15 mins followed by substrate addition and measured after 15 mins by dixon plot analysis; type: tissue-based

Row | Compound | CC50 at 12 h [1] [µM] | IC50 [2] [µM] | Km [3] [µM] | Ki [4] [µM]
1 | O=C(N/N=C/c1coc2cc(Br)ccc2c1=O)c1nc(-c2ccc(Cl)cc2)cs1 | 68 | 6.1 |  | 
2 | Cc1ccc2occ(/C=N/NC(=O)c3nc(-c4ccc(F)cc4)cs3)c(=O)c2c1 |  | 19 |  | 
3 | Alpha amylase (Homo sapiens) (from UniProt P0DUB6) |  |  | 2140 | 
4 | O=C(N/N=C/c1coc2cc(Br)ccc2c1=O)c1nc(-c2cccc(Br)c2)cs1 | > 100 | 4.46 |  | 5.4
